The values below come from patent US5349127A, “Expression of herbicide metabolizing cytochromes P450” (priority 1992, dated 1994).

For one data set, the system named is S. lividans pCAO200. The experiment in a line: Sulfonylurea metabolism by washed cell suspension (Examples 6-9). The class given is in vitro ADME, Streptomyces lividans. The conditions noted are these: substrate 10010.
In data set [1] the test system is S. lividans pCAO200SU1#12. The data set is described as above. The class given is in vitro ADME, Streptomyces lividans. Conditions: substrate 10010. The method, then:
Herbicides and their metabolites are measured by HPLC as described by Romesser et al., BBRC 140: 650-659 (1986), herein incorporated by reference, except that 0.1% H3 PO4 is used in both solvents. Chromatographic identity and quantitation of the herbicides and their resulting metabolites is determined by comparing them chromatographically with authentic standard compounds. Identity of the resulting metabolites is also confirmed by UV spectroscopy. […]
S. lividans transformed respectively with pCAO200SU1-FeS-B#9, pCAO200SU#112and pCAO200 were cultured for 36 hours in 400 ml of YEME broth at 30° C. S. griseolus ATCC 11796 was similarly cultured in 400 ml of sporulation broth. Six hours before harvesting the cells, 150 ml of fresh YEME broth was added to the S. lividans cells, and the S. griseolus cells were split into two 200 ml cultures with 100 ml of fresh sporulation broth added to each. 10001 (36 mg) was added to one of the two S. griseolus cultures to induce cytochrome P450SU1. The cells were prepared as described above in Example 5 and the concentrations of the sulfonylurea compound 10006 and its metabolites 10007, 10008 or 10009 were determined.

Data set [2] relates to S. lividans pCAO200SU1-FeS-B#9. The data set is described as above. The class given is in vitro ADME, Streptomyces lividans. Conditions: substrate 10010. As to the method:
Herbicides and their metabolites are measured by HPLC as described by Romesser et al., BBRC 140: 650-659 (1986), herein incorporated by reference, except that 0.1% H3 PO4 is used in both solvents. Chromatographic identity and quantitation of the herbicides and their resulting metabolites is determined by comparing them chromatographically with authentic standard compounds. Identity of the resulting metabolites is also confirmed by UV spectroscopy.
A 100 ml culture of S. griseolus ATCC 11796 in sporulation broth and a 50 ml culture of S. lividans transformed with pCAO400 in YEME broth were prepared and incubated for 24 hours as described. At that time, the S. griseolus culture was split into two 50 ml aliquots into two separate flasks and 25 ml of fresh sporulation broth was added to each and 9 mg of […] was added to one of these cultures to induce cytochrome P450SU1 expression. Fresh YEME broth (25 ml) was added to the S. lividans culture. After an additional 6 hours growth at 30° C., the cells in each culture were harvested as described above, washed twice with MOPS (50 mM, pH 7.2) and recentrifuged. The cell pellets were resuspended in four cell volumes of MOPS (50 mM, pH 7.2) containing 0.2% glucose and about 100 μg/ml of 10004. These cell suspensions were incubated at 30° C. with shaking and aliqouts were taken at 2 and 5.5 hours. The supernatant of each aliquot was analyzed by HPLC and the concentrations of the sulfonylurea compound 10004 and its metabolite 10005 were determined.
S. lividans transformed respectively with pCAO200SU1-FeS-B#9, pCAO200SU#112and pCAO200 were cultured for 36 hours in 400 ml of YEME broth at 30° C. S. griseolus ATCC 11796 was similarly cultured in 400 ml of sporulation broth. Six hours before harvesting the cells, 150 ml of fresh YEME broth was added to the S. lividans cells, and the S. griseolus cells were split into two 200 ml cultures with 100 ml of fresh sporulation broth added to each. 10001 (36 mg) was added to one of the two S. griseolus cultures to induce cytochrome P450SU1. […]

The test system of data set [3] is leaves of transformed tobacco. The experiment in a line: Metabolism of 10015 to 10014 in excised tobacco leaves (Example 20). The class given is in vitro ADME, Nicotiana tabacum. The method, then:
Plants were grown from tobacco seed produced by self-pollinated transformed plants in Metro-Mix® 350 under 16 hour light (light intensity of 400 μEinsteins per second per square meter at pot level, 22° C. and 80% relative humidity) followed by 8 hours of dark (18° C. and 70 to 80% relative humidity) and watered three times daily with half strength Hoagland's solution. The presence of the cytochrome P450 protein in individual plants was confirmed by Western blot analysis before testing for sulfonylurea metabolism.
During growth, the tobacco plants produced leaves attached to the main stalk, none of which were of the same age or size. Removal of leaves attached to the main stalk of each plant forced the growth of lateral shoots which in turn produced the many leaves of similar size and age needed for the experiments. The leaves were excised under water with a scalpel. These leaves were transferred to cups with the uptake solution (20 ppm sulfonylurea in 1 mM potassium phosphate buffer, pH 7.0) and allowed to take up the solution through the cut leaf base for 2 hours in the light (200 μEinsteins per second per sq. meter) at 22° C. and 86% relative humidity. At the end of the uptake period, sample leaves were either frozen in liquid nitrogen and stored at -20° C. (designated '0 hour post-uptake samples') or transferred to cups with phosphate buffer alone for an additional 5 hours of incubation in the light before freezing (designated 5 hour post-uptake samples'). In the 10001 experiments some leaves were incubated for 21 hours post-uptake under continuous light (200 μEinsteins per second per square meter, 22° C., and 63% relative humidity).
Individual leaves were extracted with 30 ml acetone/water (80%/20% by volume) for 1 minute in a Sorvall® Omni-Mixer. The brei was centrifuged to remove the tissue debris. Acetone in the supernatant was removed under a stream of nitrogen. The resulting aqueous extract was acidified to pH 2 to 3 with sulfuric acid and then extracted three times with methylene chloride. The combined methylene chloride extracts were reduced to dryness by rotary evaporation at 30° to 40° C. The dry residue was dissolved in acetone for transfer to a vial. Once transferred the acetone was removed by evaporation under a stream of nitrogen. Before HPLC analysis the dry sample was redissolved in 1.0 ml of acetonitrile/water (25%/75%). HPLC separations were carried out on a Zorbax® ODS column (4.6 mm×250 man) at 45° C. with a flow rate of 1.4 ml per minute. […] 10015 and its metabolites were detected at 254 nm while ^14 C-10001 and its metabolites were detected with a Radiomatic Flo-One® detector. A diode array detector was used in separate experiments to obtain the absorbance spectra of the 10015 metabolite and an 10014 standard in the HPLC analysis of several extracts (HPLC method is described in Romesser et al., Biochem. Biophys. Res. Comm., 140:650-659 (1986)). Comparison of the metabolite absorbance spectrum with that of the 10014 confirmed the metabolite's identity.

As to `COC(=O)c1ccccc1S(=O)(=O)NC(=O)Nc1nc(C)cc(C(=O)O)n1` [compound 10012, N-[(4-carboxy-6-methylpyrimidin-2yl)aminocarbonyl]-2-methoxycarbonylbenzenesulfonamide], the concentration in supernatant (with S. lividans pCAO200 (2 h); in the data set with S. lividans pCAO200 (4 h); with S. lividans pCAO200 (6 h); in data set [1] (2 h); in data set [1] (4 h); in data set [1] (6 h)) was 0 nM each time. The concentration in supernatant came to 2 µM in data set [2] (2 h), 12 µM in data set [2] (4 h) and 20 µM in data set [2] (6 h).

Regarding `COc1cc(OC)nc(NC(=O)NS(=O)(=O)c2cccc3c2S(=O)(=O)NC3)n1` [compound 10014, 2,3-dihydro-N-[(4,6-dimethoxypyrimidin-yl)aminocarbonyl]-1,2-benzisothiazol-7-sulfonamide-1,1-dioxide], the 10014 levels came to 0 μg/leaf in data set [3] (AGS112 (control, no P450SU1), 0 hour post-uptake); 0 μg/leaf in data set [3] (AGS112 (control, no P450SU1), 5 hour post-uptake); 1.3 μg/leaf in data set [3] (Cab-SU131.5 (chloroplast directed), 0 hour post-uptake); 2.9 μg/leaf in data set [3] (Cab-SU131.5 (chloroplast directed), 5 hour post-uptake); 2.1 μg/leaf in data set [3] (SSU-SU111.5 (chloroplast directed), 0 hour post-uptake); 1.8 μg/leaf in data set [3] (SSU-SU111.5 (chloroplast directed), 5 hour post-uptake). The 10014 levels in data set [3] (SSU-SU121.3 (chloroplast directed), 0 hour post-uptake) was found to be 1.2 μg/leaf; in data set [3] (SSU-SU121.3 (chloroplast directed), 5 hour post-uptake), 1.7 μg/leaf; in data set [3] (SU18.15 (cytoplasm directed), 0 hour post-uptake), 0 μg/leaf; in data set [3] (SU18.15 (cytoplasm directed), 5 hour post-uptake), 0 μg/leaf; in data set [3] (SU18.8 (cytoplasm directed), 0 hour post-uptake), 0 μg/leaf; in data set [3] (SU18.8 (cytoplasm directed), 5 hour post-uptake) it was 0 μg/leaf. In addition, the 10014 levels in data set [3] (W38, 20 ppm 10015 uptake 2 h, 0 hour post-uptake) was 0 μg/leaf; in data set [3] (W38, 20 ppm 10015 uptake 2 h, 5 hour post-uptake), 0 μg/leaf.
